Data set [1] concerns Pseudomonas aeruginosa. Nature of the data set: Antimicrobial activity against multidrug resistant Pseudomonas aeruginosa assessed as inhibition of visible microbial growth incubated for 18 hrs by broth microdilution method. It counts as functional. (Broth dilution looks for growth in wells or tubes with falling amounts of substance.)
For data set [2], the system named is Escherichia coli. Put plainly: Antimicrobial activity against Escherichia coli ATCC 25922 assessed as inhibition of visible microbial growth incubated for 18 hrs by broth microdilution method. It counts as functional.
For data set [3], the system named is Staphylococcus aureus. Put plainly: Antimicrobial activity against Staphylococcus aureus ATCC 29213 assessed as inhibition of visible microbial growth incubated for 18 hrs by broth microdilution method. It counts as functional.
In data set [4] the test system is Escherichia coli. Nature of the data set: Antimicrobial activity against multidrug resistant Escherichia coli assessed as inhibition of visible microbial growth incubated for 18 hrs by broth microdilution method. Format: functional.
Data set [5] has as its system Staphylococcus aureus. Nature of the data set: Antimicrobial activity against multidrug resistant Staphylococcus aureus assessed as inhibition of visible microbial growth incubated for 18 hrs by broth microdilution method. It counts as functional.
Data set [6] has as its system Acinetobacter baumannii. Put plainly: Antimicrobial activity against multidrug resistant Acinetobacter baumannii assessed as inhibition of visible microbial growth incubated for 18 hrs by broth microdilution method. It counts as functional.
A short description of data set [7]: Cytotoxicity against human LO2 cells assessed as survival rate at 64 microg/ml measured after 24 hrs by CCK-8 assay relative to control. It counts as toxicity, cell-based, L02. The settings on record: at 64 µg/mL, read-out: Survival. (Tetrazolium assays rely on reduction of a dye to a coloured formazan, in cell work by metabolically active cells.)
The nature of data set [8]: Hemolytic activity in human red blood cell assessed as hemolysis at 128 microg/ml measured after 1 hrs by microplate reader assay relative to control. Format: toxicity, cell-based, Erythrocyte. Particulars: red blood cells, at 128 µg/mL, read-out: Activity.
Data set [9] is described as follows: Cytotoxicity against HEK293T cells assessed as survival rate at 64 microg/ml measured after 24 hrs by CCK-8 assay relative to control. Format: toxicity, cell-based, HEK-293T. Particulars: human, at 64 µg/mL, read-out: Survival.
Data set [10] is described as follows: Cytotoxicity against human BEAS-2B cells assessed as survival rate at 64 microg/ml measured after 24 hrs by CCK-8 assay relative to control. Format: toxicity, cell-based. The settings on record: at 64 µg/mL, read-out: Survival.
Data set [11] in a line: Cytotoxicity against human BEAS-2B cells assessed as inhibition of cell growth measured after 24 hrs by CCK-8 assay. Format: toxicity, cell-based.

Results on 15 compounds are retold here after ChEMBL document CHEMBL6134827, “The discovery of novel antimicrobial peptides against drug-resistant bacteria based on fragments fusion strategy” (Eur J Med Chem, 2025).

Starred links: 1 amine or outer side, 2 acyl side, 3 side chain; linkers in the order of their positions; H or OH if unused. Non-standard residues stand in square brackets, D forms with d. Residues, ends and D or L forms follow the SMILES beside them. Groups on a side chain read outwards from the residue. εLys = N[C@@H](CCCCN[*:1])C(=O)[*:2]; Dab = NCC[C@H](N)C(=O)O

Regarding `CC(C)C[C@H](NC(=O)CN)C(=O)N[C@@H](CCCNC(=N)N)C(=O)N[C@H](CCCCN)C(=O)N[C@@H](Cc1c[nH]c2ccccc12)C(=O)N[C@@H](CC(C)C)C(=O)N[C@@H](CCCNC(=N)N)C(=O)N[C@@H](CCN)C(=O)N[C@@H](Cc1ccccc1)C(=O)N[C@@H](CCCCN)C(=O)N[C@@H](CCCCN)C(=O)N[C@@H](Cc1ccccc1)C(=O)N[C@@H](Cc1c[nH]c2ccccc12)C(=O)O`, the MIC (in general, the lowest concentration that inhibits growth of the organism) in [1] is 4.5 µM; in [2], 18.1 µM; in data set [3] it was 18.1 µM; in data set [4], 9.1 µM; in [5], 18.1 µM; in [6], 4.5 µM.
`CC(C)C[C@H](NC(=O)CN)C(=O)N[C@@H](CCCNC(=N)N)C(=O)N[C@@H](CCCCN)C(=O)N[C@@H](Cc1c[nH]c2ccccc12)C(=O)N[C@@H](CC(C)C)C(=O)N[C@@H](CCCNC(=N)N)C(=O)N[C@@H](CCCCN)C(=O)N[C@@H](Cc1ccccc1)C(=O)N[C@@H](CCCCN)C(=O)N[C@@H](CCN)C(=O)N[C@@H](Cc1ccccc1)C(=O)N[C@@H](Cc1c[nH]c2ccccc12)C(=O)O` (H-GLRKWLRKFK[Dab]FW-OH): the MIC in data set [1] came out at 4.5 µM; in data set [2], 9.1 µM; in [3], 9.1 µM; in [4], 4.5 µM; in data set [5], 18.1 µM; in data set [6], 4.5 µM.
On to `CC(C)C[C@H](NC(=O)CN)C(=O)N[C@@H](CCCNC(=N)N)C(=O)N[C@@H](CCCCN)C(=O)N[C@@H](Cc1c[nH]c2ccccc12)C(=O)N[C@@H](CC(C)C)C(=O)N[C@@H](CCCNC(=N)N)C(=O)N[C@@H](CCCCN)C(=O)N[C@@H](Cc1ccccc1)C(=O)N[C@@H](CCCCN)C(=O)NCCCC[C@H](N)C(=O)N[C@@H](Cc1ccccc1)C(=O)N[C@@H](Cc1c[nH]c2ccccc12)C(=O)O` (H-GLRKWLRKFK[εLys]FW-OH), for which the minimum inhibitory concentration (MIC) in [1] was 8.9 µM; in data set [2], 4.5 µM; in [3], 17.9 µM; in [4] it was 35.7 µM; in data set [5], 17.9 µM; in [6], 17.9 µM.
Regarding `CC(C)C[C@H](NC(=O)CN)C(=O)N[C@@H](CCCNC(=N)N)C(=O)N[C@@H](CCCCN)C(=O)N[C@@H](Cc1c[nH]c2ccccc12)C(=O)N[C@@H](CC(C)C)C(=O)N[C@@H](CCCNC(=N)N)C(=O)N[C@@H](CCCCN)C(=O)N[C@@H](Cc1ccccc1)C(=O)N[C@@H](CCN)C(=O)N[C@@H](CCCCN)C(=O)N[C@@H](Cc1ccccc1)C(=O)N[C@@H](Cc1c[nH]c2ccccc12)C(=O)O` (H-GLRKWLRKF[Dab]KFW-OH), the MIC in data set [1] was determined as 4.5 µM; in data set [2] it was 9.1 µM; in data set [3], 18.1 µM; in data set [4], 4.5 µM; in [5] it was 18.1 µM; in data set [6], 4.5 µM.
As to `CC(C)C[C@H](NC(=O)CN)C(=O)N[C@@H](CCCNC(=N)N)C(=O)N[C@@H](CCCCN)C(=O)N[C@@H](Cc1c[nH]c2ccccc12)C(=O)N[C@@H](CC(C)C)C(=O)N[C@@H](CCCNC(=N)N)C(=O)N[C@@H](CCCCN)C(=O)N[C@@H](Cc1ccccc1)C(=O)N[C@@H](CCN)C(=O)N[C@@H](CCN)C(=O)N[C@@H](Cc1ccccc1)C(=O)N[C@@H](Cc1c[nH]c2ccccc12)C(=O)O` (H-GLRKWLRKF[Dab][Dab]FW-OH), the minimum inhibitory concentration (MIC) was 4.6 µM in data set [1]; 9.2 µM in data set [2]; 18.4 µM in [3]; 9.2 µM in [4]; 9.2 µM in [5]; 4.6 µM in data set [6].
In the case of `CC(C)C[C@H](NC(=O)CN)C(=O)N[C@@H](CCCNC(=N)N)C(=O)N[C@@H](CCCCN)C(=O)N[C@@H](Cc1c[nH]c2ccccc12)C(=O)N[C@@H](CC(C)C)C(=O)N[C@@H](CCCNC(=N)N)C(=O)N[C@@H](CCCCN)C(=O)N[C@@H](Cc1ccccc1)C(=O)NCCCC[C@H](N)C(=O)N[C@@H](CCCCN)C(=O)N[C@@H](Cc1ccccc1)C(=O)N[C@@H](Cc1c[nH]c2ccccc12)C(=O)O` (H-GLRKWLRKF[εLys]KFW-OH), the MIC came to 8.9 µM in data set [1]; 8.9 µM in [2]; 17.9 µM in data set [3]; 35.7 µM in data set [4]; 17.9 µM in data set [5]; 17.9 µM in [6].
Turning to `CC(C)C[C@H](NC(=O)CN)C(=O)N[C@@H](CCCNC(=N)N)C(=O)N[C@@H](CCCCN)C(=O)N[C@@H](Cc1c[nH]c2ccccc12)C(=O)N[C@@H](CC(C)C)C(=O)N[C@@H](CCCNC(=N)N)C(=O)N[C@@H](CCN)C(=O)N[C@@H](Cc1ccccc1)C(=O)N[C@@H](CCN)C(=O)N[C@@H](CCN)C(=O)N[C@@H](Cc1ccccc1)C(=O)N[C@@H](Cc1c[nH]c2ccccc12)C(=O)O` (H-GLRKWLR[Dab]F[Dab][Dab]FW-OH), the MIC stood at 4.7 µM in data set [1]; 9.4 µM in data set [2]; 4.7 µM in data set [3]; 4.7 µM in data set [4]; 9.4 µM in data set [5]; 4.7 µM in data set [6].
`CC(C)C[C@H](NC(=O)CN)C(=O)N[C@@H](CCCNC(=N)N)C(=O)N[C@@H](CCCCN)C(=O)N[C@@H](Cc1c[nH]c2ccccc12)C(=O)N[C@@H](CC(C)C)C(=O)N[C@@H](CCCNC(=N)N)C(=O)NCCCC[C@H](N)C(=O)N[C@@H](Cc1ccccc1)C(=O)N[C@@H](CCCCN)C(=O)N[C@@H](CCCCN)C(=O)N[C@@H](Cc1ccccc1)C(=O)N[C@@H](Cc1c[nH]c2ccccc12)C(=O)O` (H-GLRKWLR[εLys]FKKFW-OH): the MIC in data set [1] was determined as 17.9 µM; in [2], 17.9 µM; in [3] it was 35.7 µM; in [4], 35.7 µM; in [5] it was 35.7 µM; in data set [6], 35.7 µM.
For the compound `CC(C)C[C@H](NC(=O)CN)C(=O)N[C@@H](CCCNC(=N)N)C(=O)N[C@@H](CCN)C(=O)N[C@@H](Cc1c[nH]c2ccccc12)C(=O)N[C@@H](CC(C)C)C(=O)N[C@@H](CCCNC(=N)N)C(=O)N[C@@H](CCCCN)C(=O)N[C@@H](Cc1ccccc1)C(=O)N[C@@H](CCCCN)C(=O)N[C@@H](CCCCN)C(=O)N[C@@H](Cc1ccccc1)C(=O)N[C@@H](Cc1c[nH]c2ccccc12)C(=O)O` (H-GLR[Dab]WLRKFKKFW-OH), the MIC in data set [1] is 4.5 µM; in [2] it was 9.1 µM; in data set [3], 18.1 µM; in data set [4], 9.1 µM; in data set [5], 18.1 µM; in data set [6] it was 4.5 µM.
Take `CC(C)C[C@H](NC(=O)CN)C(=O)N[C@@H](CCN)C(=O)N[C@@H](CCN)C(=O)N[C@@H](Cc1c[nH]c2ccccc12)C(=O)N[C@@H](CC(C)C)C(=O)N[C@@H](CCN)C(=O)N[C@@H](CCN)C(=O)N[C@@H](Cc1ccccc1)C(=O)N[C@@H](CCN)C(=O)N[C@@H](CCN)C(=O)N[C@@H](Cc1ccccc1)C(=O)N[C@@H](Cc1c[nH]c2ccccc12)C(=O)O` (H-GL[Dab][Dab]WL[Dab][Dab]F[Dab][Dab]FW-OH): the MIC in data set [1] came to 10.2 µM; in data set [2], 5.1 µM; in data set [3], 5.1 µM; in data set [4], 10.2 µM; in data set [5] it was 5.1 µM; in data set [6], 5.1 µM. In addition, the viability at 24 h, 64 µg/mL in data set [7], in data set [9] and in [10] was above 80% each time. In data set [8], the hemolysis at 1 h, 128 µg/mL was below 10%. Moreover, the CC50 (as a rule, the concentration at which the toxic effect on the cells reaches its halfway point) at 24 h in [11] is above 64 µg/mL.
For the compound `CC(C)C[C@H](NC(=O)CN)C(=O)N[C@@H](CCCNC(=N)N)C(=O)NCCCC[C@H](N)C(=O)N[C@@H](Cc1c[nH]c2ccccc12)C(=O)N[C@@H](CC(C)C)C(=O)N[C@@H](CCCNC(=N)N)C(=O)N[C@@H](CCCCN)C(=O)N[C@@H](Cc1ccccc1)C(=O)N[C@@H](CCCCN)C(=O)N[C@@H](CCCCN)C(=O)N[C@@H](Cc1ccccc1)C(=O)N[C@@H](Cc1c[nH]c2ccccc12)C(=O)O` (H-K([Arg-Leu-Gly])WLRKFKKFW-OH), the MIC in data set [1] stood at 8.9 µM; in data set [2], 8.9 µM; in [3], 35.7 µM; in data set [4], 35.7 µM; in data set [5] it was 35.7 µM; in [6] it was 35.7 µM.
Turning to H-GLRKFLRKFKKFGK-OH, the MIC in [1] was 73 µM; in [2], 18.2 µM; in [3], 36.5 µM; in data set [4], 36.5 µM; in data set [5], 73 µM; in data set [6], 36.5 µM.
For H-GLRKFLRKFKKFWK-OH, the minimum inhibitory concentration (MIC) in data set [1] is 17 µM; in [2], 8.5 µM; in [3], 34 µM; in data set [4], 17 µM; in [5], 34 µM; in [6] it was 8.5 µM.
H-GLRKRLRKFKKFGK-OH: the minimum inhibitory concentration (MIC) in data set [1] was above 72.7 µM; in data set [2], 72.7 µM; in data set [3] it was 72.7 µM; in [4], 72.7 µM; in data set [5], above 72.7 µM; in [6], 72.7 µM.
In the case of H-GLRKWLRKFKKFWK-OH, the MIC worked out at 8.3 µM in data set [1]; 8.3 µM in data set [2]; 16.6 µM in data set [3]; 8.3 µM in data set [4]; 16.6 µM in data set [5]; 8.3 µM in [6].
